We go through one compound from patent US20230144203A1 (SHANGHAI SENHUI MEDICINE CO., LTD., priority 2020, published 2023).

What all share (assay type): cell-based
Experiment [1] deals with Miapaca2 tumor cells. Kind of experiment: Test Example 4 cell killing study (CTG, 6 days). The following applies: Homo sapiens, MIA PaCa-2, 144 h, 6 days culture, read-out: IC50 (Miapaca). The text has this: (§1) The objective of this study is to test the inhibitory activity of the anti-TROP-2 antibody (PD3)-drug conjugate of the present disclosure against the proliferation of different tumor cell lines: Miapaca2 tumor cells (human pancreatic cancer cells, Nanjing Kebai Biotechnology Co., Ltd., Cat #CBP60544), Fadu tumor cells (human squamous cell carcinoma, ATCC, Cat #HTB-43), SK-OV-3 (human ovarian cancer cells, ATCC, Cat #HTB-77), K562 (human chronic granulocytic leukemia cells, ATCC, Cat #CCL-243), HCC827 (human lung cancer cells, ATCC, Cat #CRL-2868) and BXPC3 (human pancreatic cancer cells, ATCC, Cat #CRL-1687). The cells were treated in vitro with the antibody drug conjugate at different concentrations. After 6 days of culture, the proliferation of cells was tested using CTG (CellTiter-Glo® Luminescent Cell Viability Assay, Promega, Cat #G7573) reagents, and the in vitro activity of the antibody drug conjugate was evaluated according to IC50 value.
(§2) 2) Cell plating: on the day of the study, after the cells were digested with Trypsin (0.25% Trypsin-EDTA (1×), Life Technologies, Cat #25200-072), MiaPaCa2, Fadu, SK-OV-3, K562, HCC827 and BXPC3 were suspended in cell suspensions using the corresponding media to a density of 3.7×10^3 cells/mL, and 135 μL of suspension was added into each well of a 96-well plate (coming, Cat #3903) to culture 500 cells per well at 37° C. for 24 h.
(§3) 3) Drug preparation: the mother liquor of the test ADC was first adjusted to have a concentration of 4 μM and was added to the first column of a drug preparation plate (coming, Cat #3599). The plate was diluted 5-fold in gradient from column 2 to column 9, with PBS in column 10. 15 μL of the mother liquor in each well was added to the cell culture plate.
(§4) 4) CTG assay: after being cultured at 37° C. for 6 days, the cell culture plate was removed and balanced to room temperature. 75 μL of CTG was added into each well and reacted at room temperature for 10 min in the dark. The absorption value was read using a microplate reader (BMG labtech, PHERAstar FS).
(§5) Data were processed and analyzed using Graphpad Prism 5.

In experiment [2] the test system is HCC827. Put plainly: Test Example 4 cell killing study (CTG, 6 days). The following applies: Homo sapiens, HCC827, 144 h, 6 days culture.
Excerpt: as §1, §2, §3, §4, §5

Experiment [3] has as its system Fadu tumor cells. Put plainly: Test Example 4 cell killing study (CTG, 6 days). The following applies: Homo sapiens, 144 h, 6 days culture.
Excerpt: as §1, §2, §3, §4, §5

The subject of experiment [4] is K562. Kind of experiment: Test Example 4 cell killing study (CTG, 6 days). Particulars: Homo sapiens, K562, 144 h, 6 days culture.
Excerpt: as §1, §2, §3, §4, §5

Experiment [5] has as its system BXPC3. Kind of experiment: Test Example 4 cell killing study (CTG, 6 days). Particulars: Homo sapiens, BXPC-3, 144 h, 6 days culture.
Excerpt: as §1, §2, §3, §4, §5

Experiment [6] concerns SK-OV-3. Kind of experiment: Test Example 4 cell killing study (CTG, 6 days). The following applies: Homo sapiens, SK-OV-3, 144 h, 6 days culture, read-out: IC50 (SKOV3).
Excerpt: as §1, §2, §3, §4, §5

For experiment [7], the system named is MDA-MB-468. Kind of experiment: Test Example 2 in vitro cytotoxic activity screening (CTG). The protocol: (§6) The CTG is used for detecting the ATP content in the experiment, and the survival condition of the tumor cells is reflected.
(§7) A549, SKBR3 and MDA-MB-468 were digested with trypsin, and each was resuspended in culture medium to a cell density of 2.2×10^4 cells/mL, and 135 μL of cell suspension was added to each well in columns 2 to 11 of a 96-well plate, and column 12 was set as blank control. The cells were incubated in an incubator for 24 h at 37° C. with 5% CO2.
(§8) a) Stock solution preparation: the test compound and positive control drug were dissolved in DMSO to give a stock solution at a concentration of 5 mM.
(§9) b) Drug preparation plate 1: stock solution in column 1 was initially diluted 40-fold, and 3-fold gradient dilutions were performed sequentially in column 2 to column 11. Column 12 was filled with DMSO.
(§10) c) Drug preparation plate 2: 196 μL of the corresponding culture medium was added into columns 2 to 11, and 4 μL of culture medium was pipetted from column 3 to column 12 of drug preparation plate 1 to column 2 to column 11 of drug preparation plate
(§11) 15 μL of culture medium was pipetted from the drug preparation plate 2 and added into the plated cells. The cells were continuously incubated in an incubator for 5 h at 37° C. with 5% CO2.
(§12) 2.4) CTG assay (Cell Titer-Glo™, luminescent cell viability assay): the cell plates were removed and balanced to room temperature. 75 μL of CTG was added into each well and reacted at room temperature for 10 min in the dark. The absorption value was read using a microplate reader and IC50 was calculated.

The test system of experiment [8] is A549. The experiment is described as above. The protocol: as §6, §7, §8, §9, §10, §11, §12
The subject of experiment [9] is SKBR3. The experiment is described as above. As to the method: as §6, §7, §8, §9, §10, §11, §12

For orientation: IC50 means the concentration at which inhibition is half-maximal. On to `C=C1C[C@@H]2CC[C@@]34C[C@H]5O[C@H]6[C@@H](O3)[C@H]3O[C@H](CC[C@@H]3O[C@H]6[C@H]5O4)CC(=O)C[C@@H]3[C@@H](OC)[C@@H](C[C@H](O)CO)O[C@H]3C[C@H]3O[C@@H](CC[C@@H]1O2)C[C@@H](C)C3=C` [Compound E1-30, reference compound], for which the half-inhibitory concentration (IC50) in [1] was 450 pM; in experiment [2], 310 pM; in experiment [3] it was 320 pM; in [4], 390 pM; in experiment [5], 230 pM; in [6], 170 pM. Besides, the IC50 stood at 360 pM in experiment [7] (Homo sapiens, MDA-MB-468, 5 h); 781 pM in [8] (Homo sapiens, A549, 5 h); 166 pM in experiment [9] (Homo sapiens, SK-BR-3, 5 h). The Maximum inhibition in experiment [7] (MDA-MB-468, CTG, incubated 5 h) was 90.49%; in experiment [8] (A549, CTG, incubated 5 h), 62.46%; in experiment [9] (SKBR3, CTG, incubated 5 h), 96.15%.
